The results in this text go back to US4496566A, “Naphthyridine derivatives” (Dainippon Pharmaceutical Co., Ltd., priority 1980, dated 1985).

Molecules are shown by their SMILES. Converted amounts (≈) assume the structure as drawn.

Data set [1] deals with Pseudomonas aeruginosa No. 12. Briefly: MIC by agar dilution method. Format: cell-based. The note with it: read-out: minimum inhibitory concentration (MIC).
Data set [2] concerns Streptococcus pyogenes A65. Briefly: In vivo therapeutic efficacy against systemic infections in mice. The note with it: po, twice, about 5 minutes and 6 hours after intraperitoneal infection, male ddY mice, read-out: median effective dose (ED50). The text has this: Compound 1 of this invention obtained by the procedure described in Example 1 and compounds A and B were each suspended in a 0.2% aqueous solution of sodium carboxymethylcellulose. Each of the solutions was orally administered to mice infected with each of the test organisms under the conditions described below, and the median effective doses (ED50; mg/kg) obtained are shown in Table II. Male mice (ddY) weighing about 20 g (2) Streptococcus pyogenes […] Intraperitoneal infection with about 3×10^7 cells per mouse suspended in brain-heart infusion broth. […] Exp. Path. Pharm., 162, 480 (1931)].

Data set [3] relates to Escherichia coli P-5101. The description is as above. The note with it: P5101, 168 h, po, twice, about 5 minutes and 6 hours after intraperitoneal infection, male ddY mice, observed 7 days, read-out: median effective dose (ED50). The source says:
(§1) Compound 1 of this invention obtained by the procedure described in Example 1 and compounds A and B were each suspended in a 0.2% aqueous solution of sodium carboxymethylcellulose. Each of the solutions was orally administered to mice infected with each of the test organisms under the conditions described below, and the median effective doses (ED50; mg/kg) obtained are shown in Table II. Male mice (ddY) weighing about 20 g (3) Escherichia coli P-5101: Intraperitoneal infection with about 9×10^6 cells per mouse suspended in trypto-soy broth with 4% mucin. […] Exp. Path. Pharm., 162, 480 (1931)].

For data set [4], the system named is Pseudomonas aeruginosa Tsuchijima. Briefly: MIC by agar dilution method. Format: cell-based. The note with it: read-out: minimum inhibitory concentration (MIC).
The subject of another data set is Proteus morganii Kono. Briefly: MIC by agar dilution method. Format: cell-based. The note with it: Morganella morganii, read-out: minimum inhibitory concentration (MIC). How it is done:
(§2) The minimum inhibitory concentrations (MIC: μg/ml) of the following compounds were measured by the agar dilution method according to the procedure described in Chemotherapy, Vol. 22, No. 16, page 1126 (1974).

Data set [5] has as its system Staphylococcus aureus 209P JC-1. Briefly: MIC by agar dilution method. The note with it: Gram-positive bacteria, read-out: minimum inhibitory concentration (MIC). Format: cell-based. How it is done:
as §2
Background: Agar dilution tests growth on a series of plates holding different concentrations.

For another data set, the system named is Shigella flexneri 2a. Briefly: MIC by agar dilution method. Format: cell-based. The note with it: read-out: minimum inhibitory concentration (MIC). How it is done:
as §2

Another data set relates to Proteus mirabilis P-2381. Briefly: MIC by agar dilution method. Format: cell-based. The note with it: P2381, read-out: minimum inhibitory concentration (MIC). How it is done:
as §2

In data set [6] the test system is Serratia marcescens IFO 3736. Briefly: MIC by agar dilution method. Type of data set: cell-based. The note with it: IFO3736, read-out: minimum inhibitory concentration (MIC). How it is done:
as §2

The test system of data set [7] is Shigella flexneri 4a P-330. Briefly: MIC by agar dilution method. Format: cell-based. The note with it: 4AP330, read-out: minimum inhibitory concentration (MIC). As to the method:
as §2

The subject of data set [8] is Klebsiella pneumoniae No. 13. Briefly: MIC by agar dilution method. Format: cell-based. The note with it: read-out: minimum inhibitory concentration (MIC). How it is done:
as §2

In data set [9] the test system is Salmonella enteritidis No. 1891. Briefly: MIC by agar dilution method. Type of data set: cell-based. The note with it: Salmonella enterica, read-out: minimum inhibitory concentration (MIC).
For data set [10], the system named is Escherichia coli P-5101. Briefly: MIC by agar dilution method. Type of data set: cell-based. The note with it: P5101, read-out: minimum inhibitory concentration (MIC).
Data set [11] concerns Pseudomonas aeruginosa No. 12. Briefly: In vivo therapeutic efficacy against systemic infections in mice. The note with it: po, twice, about 5 minutes and 6 hours after intraperitoneal infection, male ddY mice, read-out: median effective dose (ED50).
Excerpt: as §1, with “(4) Pseudomonas aeruginosa No. 12:” for “(3) Escherichia coli P-5101:”, “4×10^3” for “9×10^6”

Data set [12] relates to Salmonella typhimurium S-9. Briefly: MIC by agar dilution method. Format: cell-based. The note with it: Salmonella enterica, read-out: minimum inhibitory concentration (MIC).
Data set [13] has as its system Staphylococcus aureus No. 50774. Briefly: In vivo therapeutic efficacy against systemic infections in mice. The note with it: NO.50774, 336 h, po, twice, about 5 minutes and 6 hours after intravenous infection, male ddY mice, observed 14 days, read-out: median effective dose (ED50). The text has this: Compound 1 of this invention obtained by the procedure described in Example 1 and compounds A and B were each suspended in a 0.2% aqueous solution of sodium carboxymethylcellulose. Each of the solutions was orally administered to mice infected with each of the test organisms under the conditions described below, and the median effective doses (ED50; mg/kg) obtained are shown in Table II. Male mice (ddY) weighing about 20 g (1) Staphylococcus aureus No. 50774: Intravenous infection with about 5×10^8 cells per mouse suspended in saline. […] Exp. Path. Pharm., 162, 480 (1931)].

For data set [14] the test system is unchanged. Briefly: MIC by agar dilution method. Type of data set: cell-based. The note with it: Gram-positive bacteria, read-out: minimum inhibitory concentration (MIC).
Data set [15] has as its system Streptococcus faecalis P-2473. Briefly: MIC by agar dilution method. The note with it: Enterococcus faecalis, P2473, read-out: minimum inhibitory concentration (MIC). Format: cell-based.
In data set [16] the test system is Enterobacter cloacae P-2540. Briefly: MIC by agar dilution method. Type of data set: cell-based. The note with it: P2540, read-out: minimum inhibitory concentration (MIC).
Data set [17] relates to Escherichia coli NIHJ JC-2. Briefly: MIC by agar dilution method. The note with it: NIHJJC2, read-out: minimum inhibitory concentration (MIC). Format: cell-based.
Data set [18] relates to Corynebacterium pyogenes C-21. Briefly: MIC by agar dilution method. Format: cell-based. The note with it: Trueperella pyogenes, C21, read-out: minimum inhibitory concentration (MIC).
Data set [19] has as its system Streptococcus pyogenes A65. Briefly: MIC by agar dilution method. The note with it: read-out: minimum inhibitory concentration (MIC). Type of data set: cell-based.
A further data set has as its system Escherichia coli P-140a. Briefly: MIC by agar dilution method. Format: cell-based. The note with it: P140A, read-out: minimum inhibitory concentration (MIC).
Data set [20] is described as follows: Acute oral toxicity in mice. The note with it: mouse, in vivo, male ddY mice, deaths counted after 7 days, Behrens-Kaerber method, read-out: median lethal dose (LD50). As to the method: A suspension containing each of compound 1 of the invention and compound A in various concentrations was orally given to male mice (ddY) at a volume of 0.1 ml per 10 g of body weight.

Consider `O=C(O)c1cn(CCF)c2nc(N3CCNCC3)c(F)cc2c1=O` [Compound B, 6-Fluoro-1-(2-fluoroethyl)-1,4-dihydro-4-oxo-7-(1-piperazinyl)-1,8-naphthyridine-3-carboxylic acid], for which the MIC in [1] amounted to 0.78 µg/mL (≈ 2.31 µM); in data set [4] it was 0.78 µg/mL (≈ 2.31 µM); in the data set with Proteus morganii Kono, 0.2 µg/mL (≈ 0.591 µM); in [5], 0.39 µg/mL (≈ 1.15 µM); with Shigella flexneri 2a, 0.2 µg/mL (≈ 0.591 µM); with Proteus mirabilis P-2381 it was 0.39 µg/mL (≈ 1.15 µM). The MIC in data set [6] amounted to 0.39 µg/mL (≈ 1.15 µM); in data set [7] it was 0.1 µg/mL (≈ 0.296 µM); in [8] it was 0.78 µg/mL (≈ 2.31 µM); in data set [9] it was 0.1 µg/mL (≈ 0.296 µM); with Escherichia coli P-5101 [10], 0.1 µg/mL (≈ 0.296 µM); in [12], 0.1 µg/mL (≈ 0.296 µM). For the same compound, the MIC in data set [14] was determined as 1.56 µg/mL (≈ 4.61 µM); in data set [15] it was 12.5 µg/mL (≈ 36.9 µM); in data set [16], 0.1 µg/mL (≈ 0.296 µM); in data set [17], 0.2 µg/mL (≈ 0.591 µM); in data set [18], 1.56 µg/mL (≈ 4.61 µM); in data set [19] it was 12.5 µg/mL (≈ 36.9 µM). In addition, the MIC in the data set on Escherichia coli P-140a amounted to 0.1 µg/mL (≈ 0.296 µM). Moreover, the ED50 is 50 mg/kg in data set [2], 3 mg/kg with Escherichia coli P-5101 [3], 27.2 mg/kg in data set [11] and 11.5 mg/kg in data set [13].

In the case of `CN1CCN(c2nc3c(cc2F)c(=O)c(C(=O)O)cn3CCF)CC1` [Compound 1, 6-Fluoro-1-(2-fluoroethyl)-1,4-dihydro-7-(4-methyl-1-piperazinyl)-4-oxo-1,8-naphthyridine-3-carboxylic acid], the MIC in [1] came out at 1.56 µg/mL (≈ 4.43 µM); in [4], 3.13 µg/mL (≈ 8.88 µM); in the data set on Proteus morganii Kono, 0.39 µg/mL (≈ 1.11 µM); in data set [5], 0.78 µg/mL (≈ 2.21 µM); in the data set on Shigella flexneri 2a, 0.39 µg/mL (≈ 1.11 µM); in the data set on Proteus mirabilis P-2381 it was 0.78 µg/mL (≈ 2.21 µM). The MIC in data set [6] was found to be 1.56 µg/mL (≈ 4.43 µM); in data set [7] it was 0.1 µg/mL (≈ 0.284 µM); in data set [8] it was 0.39 µg/mL (≈ 1.11 µM); in data set [9], 0.1 µg/mL (≈ 0.284 µM); in the data set with Escherichia coli P-5101 [10] it was 0.1 µg/mL (≈ 0.284 µM); in data set [12], 0.2 µg/mL (≈ 0.568 µM). The MIC in data set [14] was determined as 0.39 µg/mL (≈ 1.11 µM); in [15], 12.5 µg/mL (≈ 35.5 µM); in [16], 0.2 µg/mL (≈ 0.568 µM); in [17], 0.2 µg/mL (≈ 0.568 µM); in data set [18], 6.25 µg/mL (≈ 17.7 µM); in [19] it was 12.5 µg/mL (≈ 35.5 µM). The MIC with Escherichia coli P-140a was 0.1 µg/mL (≈ 0.284 µM). The ED50 in data set [2] turned out to be 14.9 mg/kg; with Escherichia coli P-5101 [3], 0.52 mg/kg; in [11], 4.2 mg/kg; in [13], 1.4 mg/kg. Moreover, in data set [20], the LD50 at 168 h is over 1800 mg/kg.

Consider `CCn1cc(C(=O)O)c(=O)c2cc(F)c(N3CCN(C)CC3)nc21` [Compound A, 1-Ethyl-6-fluoro-1,4-dihydro-7-(4-methyl-1-piperazinyl)-4-oxo-1,8-naphthyridine-3-carboxylic acid], for which the ED50 in data set [2] is over 50 mg/kg. In addition, the MIC in the data set with Proteus morganii Kono was determined as 0.78 µg/mL (≈ 2.33 µM); with Shigella flexneri 2a it was 0.39 µg/mL (≈ 1.17 µM); with Proteus mirabilis P-2381, 3.13 µg/mL (≈ 9.36 µM); in data set [6], 1.56 µg/mL (≈ 4.67 µM); in data set [7], 0.78 µg/mL (≈ 2.33 µM); in [9], 0.1 µg/mL (≈ 0.299 µM). For the same compound, the MIC in data set [17] was determined as 0.39 µg/mL (≈ 1.17 µM); in data set [18], 6.25 µg/mL (≈ 18.7 µM); in data set [19], 6.25 µg/mL (≈ 18.7 µM); in the data set with Escherichia coli P-140a, 0.39 µg/mL (≈ 1.17 µM).

For orientation: ED50 means the dose that gives a 50% effect, or the effect in half of the subjects. A word on the LD50: it is the dose expected to kill half of the subjects tested.
